Measured values as given in patent US11034717B2, “Farnesoid X receptor modulators” (Intercept Pharmaceuticals, Inc., priority 2015, dated 2021).
Read-outs that look alike come from different tables or passages of the source.

Legend:
[1] = In-vitro cytotoxicity, membrane integrity (LDH release); format: cell-based; details: human; HepG2; read-out: Membrane Integrity (LDH measure) LC50
Source text: (§1) To evaluate in-vitro cytotoxicity of a compound of the invention, two different assay methods are employed. The assays evaluate cell viability by measuring ATP levels and cytotoxicity by measuring LDH release. Adenosine Triphosphate (ATP) nucleotide represents the source of energy at the basic molecular level, as it is a multifunctional molecule that is used in every cell as a coenzyme and is an integral part of the mitochondrial DNA (Kangas, et al., Medical Biology, 1984, 62, 338-343; Crouch, et al., J Immunol. Methods, 1993, 160, 81-88; and Petty, et al., J Biolumin. Chemilumin. 1995, 10, 29-34). It has been called the “molecular unit of currency” when it comes to intracellular energy transfer.
(§2) An additional method to determine the viability of cells is to detect the integrity of the membrane that defines the cellular compartmentalization. Measuring the leakage of components out of the cytoplasm, in damaged cell membranes, indicates loss of membrane integrity, and LDH release is the method used to determine common toxicity in cells. HepG2 cells are treated with a compound of the invention, and serial dilutions are performed. LCA dilutions are added to the plated cells as assay controls together with no-cell and untreated cells. The assay is performed in triplicate for each test compound concentration.

HepG2 cells [2] = experiment: In-vitro cytotoxicity, ATP content; format: cell-based; details: Table 5B, HepG2
Source text: To evaluate in-vitro cytotoxicity of a compound of the invention, two different assay methods are employed. The assays evaluate cell viability by measuring ATP levels and cytotoxicity by measuring LDH release. […] It has been called the “molecular unit of currency” when it comes to intracellular energy transfer.
as §2

hTGR5 [3] = target: T1, hTGR5 (Homo sapiens (Human), UniProt Q8TDU6); experiment: HTR-FRET intracellular cAMP assay in NCI-H716 cells; format: cell-based; details: Table 2
T1 sequence (Q8TDU6 whole entry): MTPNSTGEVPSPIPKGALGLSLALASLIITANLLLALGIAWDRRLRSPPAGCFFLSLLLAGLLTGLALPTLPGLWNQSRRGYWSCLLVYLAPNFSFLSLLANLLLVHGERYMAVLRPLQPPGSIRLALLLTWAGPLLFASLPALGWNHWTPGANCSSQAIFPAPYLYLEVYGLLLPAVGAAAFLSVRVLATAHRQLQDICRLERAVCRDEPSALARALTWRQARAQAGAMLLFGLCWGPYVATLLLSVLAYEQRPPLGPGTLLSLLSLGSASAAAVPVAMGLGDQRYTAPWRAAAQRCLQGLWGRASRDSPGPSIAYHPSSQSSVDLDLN

rTGR5 = rTGR5 (Rattus norvegicus (Rat), UniProt Q80T02); experiment: Cross species TGR5 activity, CHO cells, rat; format: cell-based
Sequence of rTGR5 (Q80T02 whole entry): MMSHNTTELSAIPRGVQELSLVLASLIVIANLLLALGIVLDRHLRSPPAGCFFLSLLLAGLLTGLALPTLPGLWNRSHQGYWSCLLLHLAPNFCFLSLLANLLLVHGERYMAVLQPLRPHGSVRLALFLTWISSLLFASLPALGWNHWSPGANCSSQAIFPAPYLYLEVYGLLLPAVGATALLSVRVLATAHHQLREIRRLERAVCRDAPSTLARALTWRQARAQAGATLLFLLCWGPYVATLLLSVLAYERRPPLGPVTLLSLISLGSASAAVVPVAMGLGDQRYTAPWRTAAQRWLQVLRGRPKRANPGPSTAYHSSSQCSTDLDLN

mTGR5 = mTGR5 (Mus musculus (Mouse), UniProt Q80SS6); experiment: Cross species TGR5 activity, CHO cells, mouse; format: cell-based
Sequence of mTGR5 (Q80SS6 whole entry): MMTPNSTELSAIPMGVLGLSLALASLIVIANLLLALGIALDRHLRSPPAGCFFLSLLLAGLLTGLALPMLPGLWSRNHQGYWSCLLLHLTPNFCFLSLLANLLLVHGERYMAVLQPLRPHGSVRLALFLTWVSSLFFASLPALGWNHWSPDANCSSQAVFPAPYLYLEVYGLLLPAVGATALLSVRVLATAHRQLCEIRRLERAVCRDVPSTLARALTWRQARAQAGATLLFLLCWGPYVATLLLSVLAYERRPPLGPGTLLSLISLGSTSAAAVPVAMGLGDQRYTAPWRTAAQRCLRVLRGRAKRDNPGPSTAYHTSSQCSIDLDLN

[4] = test system: nuclear receptors LXRP, PXR, CAR, PPARα, PPARγ, RAR, RARα, VDR, TR, PR, RXR, GR, and ER; experiment: Nuclear receptor selectivity profile (AlphaScreen); format: biochemical; details: for Activation of nuclear receptor panel, agonist mode: dose response to 200 μM; for Activity on nuclear receptor panel, antagonist mode: fixed concentration at 10 μM
Method: Using the AlphaScreen assay, the selectivity of a compound of the invention against the following nuclear receptors involved in the metabolic pathways can be evaluated: LXRP, PXR, CAR, PPARα, PPARα, PPARγ, RAR, RARα, VDR, TR, PR, RXR, GR, and ER.
Compounds L1, 3, 5, 6 and 7 were tested against the panel of available nuclear receptor in both agonist and antagonist mode.

[5] = Critical micellar concentration; format: physicochemical; details: determined in […] NaCl water solution
Method: (§3) Physiochemical properties of a compound of the invention such as water solubility, critical micellar concentration, surface tension, and LogPA were determined using methods known in the art.

HepG2 cells [6] = experiment: In-vitro cytotoxicity, membrane integrity (LDH release); format: cell-based
Source text: as §1, §2

hTGR5 [7] = target: T1, hTGR5; experiment: Cross species TGR5 activity, CHO cells, human; format: cell-based
[8] = test system: FXR target genes: BSEP, SHP, OSTβ and CYP7A1; experiment: FXR target gene panel, quantitative RT-PCR in HepG2 cells; format: cell-based; details: stimulation for 18 hours
Method: To evaluate the capacity of a compound of the invention to modulate FXR target genes, quantitative RT-PCR assays are performed. HepG2 cells are selected as a relevant cell line to determine whether a compound of the invention can regulate the endogenous FXR genetic network. The ability of a compound of the invention to induce FXR target genes is assessed by isolating total RNA from cells treated overnight with 1 μM of compounds A, B, and a compound of the invention.
FXR regulates the expression of several target genes involved in BA homeostasis. Briefly, FXR plays a central role in several metabolic pathways, including i.e., lipid metabolism, bile-acids metabolism, and carbohydrate metabolism. Regarding gene expression profiling, the genes encoding proteins involved in lipid metabolism include, e.g., APOCII, APOE, APOAI, SREBP-1C, VLDL-R, PLTP, and LPL; the genes encoding proteins involved in bile-acids metabolism include, e.g., OSTα/β, BSEP, MRP2, SHP, CYP7A1, FGF19, SULT2A1, and UGT2B4; and the genes encoding proteins involved in carbohydrate metabolism include, e.g., PGCla, PEPCK, and GLUT2. FXR target genes: BSEP, SHP, OSTβ and CYP7A1 were evaluated following stimulation of Compounds 3, 5, 6, and 7 on HepG2 cells for 18 hours. Compound L1 was used as a control.

CYP2C9 = CYP2C9 (Homo sapiens (Human), UniProt P11712); experiment: CYP450 inhibition, fluorescent substrate, recombinant baculosomes; format: in vitro ADME; details: read-out: CYP2C9 IC50
Sequence of CYP2C9 (P11712 whole entry, canonical isoform): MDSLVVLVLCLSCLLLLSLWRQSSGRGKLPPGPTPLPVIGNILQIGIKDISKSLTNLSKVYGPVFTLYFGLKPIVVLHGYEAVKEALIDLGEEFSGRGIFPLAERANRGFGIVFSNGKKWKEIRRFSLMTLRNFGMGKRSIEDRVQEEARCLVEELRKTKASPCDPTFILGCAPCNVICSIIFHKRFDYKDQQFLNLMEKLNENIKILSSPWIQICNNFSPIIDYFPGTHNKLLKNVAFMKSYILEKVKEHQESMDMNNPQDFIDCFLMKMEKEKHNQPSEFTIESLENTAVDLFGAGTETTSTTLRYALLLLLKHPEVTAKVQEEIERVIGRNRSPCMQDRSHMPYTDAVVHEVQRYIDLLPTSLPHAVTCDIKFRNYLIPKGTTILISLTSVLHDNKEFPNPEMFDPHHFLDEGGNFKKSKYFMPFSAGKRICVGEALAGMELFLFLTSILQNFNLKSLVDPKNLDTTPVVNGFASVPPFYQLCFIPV
Method: (§4) To evaluate the potential of a compound of the invention for drug-drug interactions, the six main CYP450 isoforms (CYP1A2, CYP2C9, CYP2C19, CYP2D6, CYP2E1, CYP3A4) are investigated (Obach, et al., J Pharmacol. Exp. Ther, 2006, 316, 336-348).
(§5) To determine interaction between a compound of the invention and cytochrome P450 enzymes, the compound of the invention is analyzed by its capacity to inhibit (or not) the production of a fluorescent signal, using recombinant CYP450 proteins (baculosomes; Invitrogen), substrates and inhibitors (Bidstrup, et al., Br J Clin. Pharmacol, 2003, 56, 305-14). As a positive control, a selective inhibitor for each CYP450 isoform is tested in the same plate.

CYP2E1 = CYP2E1 (Homo sapiens (Human), UniProt P05181); experiment: as above; format: in vitro ADME; details: read-out: CYP2E1 IC50
Sequence of CYP2E1 (P05181 whole entry): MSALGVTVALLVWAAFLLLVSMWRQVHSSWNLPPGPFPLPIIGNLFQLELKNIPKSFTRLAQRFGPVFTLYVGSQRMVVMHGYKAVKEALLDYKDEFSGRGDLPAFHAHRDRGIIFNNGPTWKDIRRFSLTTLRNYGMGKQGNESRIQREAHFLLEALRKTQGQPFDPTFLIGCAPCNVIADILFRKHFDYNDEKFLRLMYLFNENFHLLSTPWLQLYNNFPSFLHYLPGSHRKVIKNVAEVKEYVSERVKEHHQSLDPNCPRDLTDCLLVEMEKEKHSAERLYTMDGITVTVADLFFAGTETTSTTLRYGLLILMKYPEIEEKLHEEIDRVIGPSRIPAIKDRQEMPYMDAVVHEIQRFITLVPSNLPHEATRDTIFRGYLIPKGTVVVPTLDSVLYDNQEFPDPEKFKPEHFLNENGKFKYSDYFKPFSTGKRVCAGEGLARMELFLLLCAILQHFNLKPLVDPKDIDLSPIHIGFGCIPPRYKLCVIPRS
Method: as §4, §5

CYP2D6 = CYP2D6 (Homo sapiens (Human), UniProt P10635); experiment: as above; format: in vitro ADME; details: read-out: CYP2D6 IC50
Sequence of CYP2D6 (P10635 whole entry): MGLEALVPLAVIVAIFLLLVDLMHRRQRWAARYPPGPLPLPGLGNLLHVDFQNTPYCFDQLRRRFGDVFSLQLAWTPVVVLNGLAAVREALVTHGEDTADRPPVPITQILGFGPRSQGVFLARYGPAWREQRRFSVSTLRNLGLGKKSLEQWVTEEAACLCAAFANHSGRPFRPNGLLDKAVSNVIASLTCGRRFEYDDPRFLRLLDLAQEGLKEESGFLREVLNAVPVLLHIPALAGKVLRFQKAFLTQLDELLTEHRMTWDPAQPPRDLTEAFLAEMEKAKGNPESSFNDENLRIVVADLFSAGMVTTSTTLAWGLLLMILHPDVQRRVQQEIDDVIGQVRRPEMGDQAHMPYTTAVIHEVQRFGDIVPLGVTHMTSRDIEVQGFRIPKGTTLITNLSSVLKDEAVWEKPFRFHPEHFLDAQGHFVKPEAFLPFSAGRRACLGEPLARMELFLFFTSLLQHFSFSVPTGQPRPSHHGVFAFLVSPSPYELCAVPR
Method: as §4, §5

CYP2C19 = CYP2C19 (Homo sapiens (Human), UniProt P33261); experiment: as above; format: in vitro ADME; details: read-out: CYP2C19 IC50
Sequence of CYP2C19 (P33261 whole entry): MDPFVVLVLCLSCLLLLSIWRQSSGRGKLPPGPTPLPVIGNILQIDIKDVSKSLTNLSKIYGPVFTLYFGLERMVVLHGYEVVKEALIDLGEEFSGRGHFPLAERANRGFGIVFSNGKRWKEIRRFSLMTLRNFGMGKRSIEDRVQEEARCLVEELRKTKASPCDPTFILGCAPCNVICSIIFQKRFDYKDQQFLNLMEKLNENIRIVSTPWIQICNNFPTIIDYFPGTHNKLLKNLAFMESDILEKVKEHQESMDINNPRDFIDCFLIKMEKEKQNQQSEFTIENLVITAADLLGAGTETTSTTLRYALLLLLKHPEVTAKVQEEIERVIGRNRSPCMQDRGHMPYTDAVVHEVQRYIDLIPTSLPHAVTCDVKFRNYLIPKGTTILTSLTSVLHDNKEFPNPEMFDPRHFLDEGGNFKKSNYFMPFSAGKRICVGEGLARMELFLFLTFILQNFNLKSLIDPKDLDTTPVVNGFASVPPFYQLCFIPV
Method: as §4, §5

CYP1A2 = CYP1A2 (Homo sapiens (Human), UniProt P05177); experiment: as above; format: in vitro ADME
Method: as §4, §5

CYP3A4 = CYP3A4 (Homo sapiens (Human), UniProt P08684); experiment: as above; format: in vitro ADME
Sequence of CYP3A4 (P08684 whole entry): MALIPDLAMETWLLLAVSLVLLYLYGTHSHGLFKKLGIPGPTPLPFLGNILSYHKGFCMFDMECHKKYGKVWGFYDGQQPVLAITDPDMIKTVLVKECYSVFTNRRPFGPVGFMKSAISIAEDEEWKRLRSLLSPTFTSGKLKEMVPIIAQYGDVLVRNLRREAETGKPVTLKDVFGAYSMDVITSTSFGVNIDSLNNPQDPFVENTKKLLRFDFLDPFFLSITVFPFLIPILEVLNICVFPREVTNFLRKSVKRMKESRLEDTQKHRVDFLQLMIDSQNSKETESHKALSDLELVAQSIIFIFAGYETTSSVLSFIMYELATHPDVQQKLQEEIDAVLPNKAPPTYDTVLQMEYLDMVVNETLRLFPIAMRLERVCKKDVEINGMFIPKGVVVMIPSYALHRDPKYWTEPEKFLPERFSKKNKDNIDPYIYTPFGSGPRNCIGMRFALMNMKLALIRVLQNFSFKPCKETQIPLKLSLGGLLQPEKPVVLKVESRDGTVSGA
Method: as §4, §5

dTGR5 = experiment: Cross species TGR5 activity, CHO cells, dog; format: cell-based
[9] = 1-octanol-water partition coefficient of ionized species; format: physicochemical
Method: as §3

hERG potassium channel = hERG potassium channel (Homo sapiens (Human), UniProt Q12809); experiment: biochemical
Sequence of hERG potassium channel (Q12809 whole entry): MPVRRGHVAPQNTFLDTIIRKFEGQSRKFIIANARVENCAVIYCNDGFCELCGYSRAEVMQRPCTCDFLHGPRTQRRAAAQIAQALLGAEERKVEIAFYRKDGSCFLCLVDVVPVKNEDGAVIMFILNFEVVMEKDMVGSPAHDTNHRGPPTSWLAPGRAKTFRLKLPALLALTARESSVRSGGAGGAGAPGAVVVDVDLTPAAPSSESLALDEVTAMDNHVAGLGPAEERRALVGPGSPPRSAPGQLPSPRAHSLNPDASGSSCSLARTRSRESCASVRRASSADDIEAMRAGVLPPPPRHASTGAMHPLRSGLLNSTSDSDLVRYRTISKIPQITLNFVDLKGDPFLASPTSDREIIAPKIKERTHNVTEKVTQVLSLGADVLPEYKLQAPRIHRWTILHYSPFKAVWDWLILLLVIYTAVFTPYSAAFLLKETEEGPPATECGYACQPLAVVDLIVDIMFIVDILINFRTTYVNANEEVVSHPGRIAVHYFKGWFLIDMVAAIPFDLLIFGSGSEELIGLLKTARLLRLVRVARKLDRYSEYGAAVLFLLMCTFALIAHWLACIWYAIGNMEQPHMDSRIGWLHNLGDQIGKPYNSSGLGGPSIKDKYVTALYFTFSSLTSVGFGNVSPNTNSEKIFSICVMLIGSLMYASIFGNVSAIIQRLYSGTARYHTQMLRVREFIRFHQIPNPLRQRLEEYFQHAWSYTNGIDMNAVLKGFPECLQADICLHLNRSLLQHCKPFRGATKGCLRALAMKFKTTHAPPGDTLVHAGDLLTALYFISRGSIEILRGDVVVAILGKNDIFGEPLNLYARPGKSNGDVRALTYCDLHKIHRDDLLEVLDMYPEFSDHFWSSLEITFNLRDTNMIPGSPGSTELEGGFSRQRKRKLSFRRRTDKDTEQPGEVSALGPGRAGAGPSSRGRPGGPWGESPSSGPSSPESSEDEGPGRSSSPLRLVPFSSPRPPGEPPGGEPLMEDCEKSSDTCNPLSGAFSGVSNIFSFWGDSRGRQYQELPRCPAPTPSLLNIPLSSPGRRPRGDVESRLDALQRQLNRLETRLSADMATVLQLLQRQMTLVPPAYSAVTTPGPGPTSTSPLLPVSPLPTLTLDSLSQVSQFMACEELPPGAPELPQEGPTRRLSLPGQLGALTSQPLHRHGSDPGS
Source text: The assay is based on the assumption that the hERG potassium channel activity contributes to the resting membrane potential in permanently transfected cells, and thus a block of hERG channels should result in a depolarization of the cell membrane. The assay is designed to identify potential hERG channel blockers by producing data that accurately correlates with patch-clamp electrophysiology studies.
Membrane preparations from Chinese hamster ovary cells stably transfected with hERG potassium channel are used to evaluate the potential inhibitory effect of a compound of the invention on this channel using the Predictor™ fluorescence polarization assay. Reduction of membrane polarization as a result of inhibition of the hERG potassium channel is directly correlated with a reduction of the fluorescence polarization (FP).
An assay window more than 100 mP (millipolarization) is considered good. The non-linear regression curves are obtained by GraphPad Prism (GraphPad Software Inc.) analysis, to calculate the IC50 values.

[10] = Blue substrate, read-out: CYP3A4 (Blue substrate) IC50
[11] = Green substrate, read-out: CYP3A4 (Green substrate) IC50

| SMILES | HTR-FRET (cAMP) Human TGR5 EC50 (hTGR5 [3]) | rTGR5 CHO EC50 (rTGR5) | Activation of nuclear receptor panel, agonist mode [4] | Activity on nuclear receptor panel, antagonist mode [4] | Membrane Integrity (LDH measure) LC50 (HepG2 cells [6]) | hTGR5 CHO EC50 (hTGR5 [7]) | Modulation of FXR target genes BSEP, SHP, OSTβ and CYP7A1 [8] | IC50 (CYP2C9) [µM] | IC50 (CYP2E1) [µM] | IC50 (CYP2D6) [µM] | IC50 (CYP2C19) [µM] | IC50 (CYP1A2) [µM] | IC50 (CYP3A4; [10]) [µM] | IC50 (CYP3A4; [11]) [µM] | EC50 (dTGR5) [µM] | LogPA−: 1-octanol-water partition coefficient as ionized species [9] | ATP Content EC50 (HepG2 cells [2]) | IC50 (hERG potassium channel) [µM] | hERG potassium channel inhibition (in words) (hERG potassium channel) | also measured |
| --- | --- | --- | --- | --- | --- | --- | --- | --- | --- | --- | --- | --- | --- | --- | --- | --- | --- | --- | --- | --- |
| C[C@H](CCC(=O)O)[C@H]1CC[C@H]2[C@@H]3CC[C@@H]4C[C@H](O)CC[C@]4(C)[C@H]3CC[C@]12C [LCA, lithocholic acid, reference compound] | – | – | – | – | – | – | – | – | – | – | – | – | – | – | – | – | – | – | – | CC50 [1]: 100 ± 5 µM; EC50 (HepG2 cells [2]; Homo sapiens): 75 ± 5 µM |
| CC[C@H]1[C@@H](O)C2C3CC[C@H]([C@H](C)Cc4nc(=O)o[nH]4)[C@@]3(C)C[C@H](O)C2[C@@]2(C)CC[C@@H](O)C[C@@H]12 (stereo partly drawn) [Compound 6, 3α,7α,11β-trihydroxy-6α-ethyl-22-(1,2,4-oxadiazol-5-oxo-3-yl)-23,24-bisnor-5β-cholane] | No activity | No activity | Neither compound activated any of the receptors | Neither compound activated any of the receptors | No toxicity | No activity | significantly bind to FXR in hepatic cells modulating FXR target genes | > 10 | > 10 | > 10 | > 10 | > 10 | > 10 | > 10 | 1.5 ± 0.3 | 1.7 | No toxicity | > 100 | Compounds L1, 3, 5, 6 and 7 did not inhibit hERG potassium channel. | mTGR5 CHO EC50 (mTGR5): No activity; CMC: Critical Micellar Concentration [5]: 28 mM |
| CC[C@H]1[C@@H](O)C2C3CC[C@H]([C@H](C)CCc4nc(=O)o[nH]4)[C@@]3(C)C[C@H](O)C2[C@@]2(C)CC[C@@H](O)C[C@@H]12 (stereo partly drawn) [Compound 7, 3α,7α,11β-Trihydroxy-6α-ethyl-23-(1,2,4-oxadiazol-5-oxo-3-yl)-24-nor-5β-cholane] | No activity | No activity | Neither compound activated any of the receptors | Neither compound activated any of the receptors | No toxicity | No activity | significantly bind to FXR in hepatic cells modulating FXR target genes | > 10 | > 10 | > 10 | > 10 | > 10 | > 10 | > 10 | 7.6 ± 0.01 | 2.0 | No toxicity | > 100 | Compounds L1, 3, 5, 6 and 7 did not inhibit hERG potassium channel. | EC50 (mTGR5): 9.5 ± 2 µM |
